Data published in PubChem BioAssay (NCI).
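48-hour exposure; five concentrations; linearly interpolated endpoints. TGI marks complete inhibition of growth.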

How the values were obtained:
Experiment in all cases: growth of human tumour cells (NCI), 48 h
[1] = system: HCT-15 colon
[2] = system: SF-539 CNS
[3] = system: SK-MEL-5 melanoma
[4] = system: LOX IMVI melanoma
[5] = system: SN12C renal
[6] = system: MDA-MB-435
[7] = system: M14 melanoma
[8] = system: NCI-H226 lung
[9] = system: HL-60(TB) leukemia
[10] = system: K-562 leukemia
[11] = system: RXF 393 renal
[12] = system: NCI-H460 lung
[13] = system: T-47D breast
[14] = system: SNB-19 CNS
[15] = system: SK-MEL-2 melanoma
[16] = system: OVCAR-5 ovarian
[17] = system: HT29 colon
[18] = system: 786-0 renal
[19] = system: SK-OV-3 ovarian
[20] = system: UO-31 renal
[21] = system: COLO 205 colon
[22] = system: RPMI-8226 leukemia
[23] = system: PC-3 prostate
[24] = system: MALME-3M melanoma
[25] = system: MDA-N
[26] = system: UACC-62 melanoma
[27] = system: KM12 colon
[28] = system: CCRF-CEM leukemia
[29] = system: CAKI-1 renal
[30] = system: EKVX NSCLC
[31] = system: U251 CNS
[32] = system: MDA-MB-231 breast
[33] = system: NCI-H522 lung
[34] = system: HS 578T breast
[35] = system: IGROV1 ovarian
[36] = system: HCT-116 colon
[37] = system: OVCAR-8 ovarian
[38] = system: ACHN renal
[39] = system: NCI-H23 lung
[40] = system: A498 renal
[41] = system: HOP-92 NSCLC
[42] = system: HOP-62 NSCLC
[43] = system: TK-10 renal
[44] = system: OVCAR-3 ovarian
[45] = system: HCC-2998 colon
[46] = system: MCF7 breast
[47] = system: BT-549 breast
[48] = system: SW-620 colon
[49] = system: SK-MEL-28 melanoma
[50] = system: SR leukemia
[51] = system: A549 NSCLC
[52] = system: SF-295 CNS
[53] = system: SF-268 CNS
[54] = system: SNB-75 CNS
[55] = system: NCI/ADR-RES ovarian
[56] = system: DU-145 prostate
[57] = system: UACC-257 melanoma
[58] = system: MOLT-4 leukemia
[59] = system: OVCAR-4 ovarian

Compound: C#CCn1c(I)cc2c(c1=O)COC(=O)[C@]2(O)CC
- TGI [1]: > 100 µM
- TGI [2]: > 100 µM
- TGI [3]: > 100 µM
- TGI [4]: > 100 µM
- TGI [5]: > 100 µM
- TGI [6]: > 100 µM
- TGI [7]: > 100 µM
- TGI [8]: > 100 µM
- TGI [9]: > 100 µM
- TGI [10]: > 100 µM
- TGI [11]: > 100 µM
- TGI [12]: > 100 µM
- TGI [13]: > 100 µM
- TGI [14]: > 100 µM
- TGI [15]: > 100 µM
- TGI [16]: > 100 µM
- TGI [17]: > 100 µM
- TGI [18]: > 100 µM
- TGI [19]: > 100 µM
- TGI [20]: > 100 µM
- TGI [21]: > 100 µM
- TGI [22]: > 100 µM
- TGI [23]: > 100 µM
- TGI [24]: > 100 µM
- TGI [25]: > 100 µM
- TGI [26]: > 100 µM
- TGI [27]: > 100 µM
- TGI [28]: > 100 µM
- TGI [29]: > 100 µM
- TGI [30]: > 100 µM
- TGI [31]: > 100 µM
- TGI [32]: > 100 µM
- TGI [33]: > 100 µM
- TGI [34]: > 100 µM
- TGI [35]: > 100 µM
- TGI [36]: > 100 µM
- TGI [37]: > 100 µM
- TGI [38]: > 100 µM
- TGI [39]: > 100 µM
- TGI [40]: > 100 µM
- TGI [41]: > 100 µM
- TGI [42]: > 100 µM
- TGI [43]: > 100 µM
- TGI [44]: > 100 µM
- TGI [45]: > 100 µM
- TGI [46]: > 100 µM
- TGI [47]: > 100 µM
- TGI [48]: > 100 µM
- TGI [49]: > 100 µM
- TGI [50]: > 100 µM
- TGI [51]: > 100 µM
- TGI [52]: > 100 µM
- TGI [53]: > 100 µM
- TGI [54]: > 100 µM
- TGI [55]: > 100 µM
- TGI [56]: > 100 µM
- TGI [57]: > 100 µM
- TGI [58]: > 100 µM
- TGI [59]: > 100 µM

Compound: C/C(CC(O)(C(F)(F)F)C(F)(F)F)=N\O
- TGI [1]: > 10 µM
- TGI [2]: > 10 µM
- TGI [3]: > 10 µM
- TGI [4]: > 10 µM
- TGI [5]: > 10 µM
- TGI [6]: > 10 µM
- TGI [7]: > 10 µM
- TGI [8]: > 10 µM
- TGI [9]: > 10 µM
- TGI [10]: > 10 µM
- TGI [11]: > 10 µM
- TGI [12]: > 10 µM
- TGI [13]: > 10 µM
- TGI [14]: > 10 µM
- TGI [15]: > 10 µM
- TGI [16]: > 10 µM
- TGI [17]: > 10 µM
- TGI [18]: > 10 µM
- TGI [19]: > 10 µM
- TGI [21]: > 10 µM
- TGI [22]: > 10 µM
- TGI [23]: > 10 µM
- TGI [24]: > 10 µM
- TGI [25]: > 10 µM
- TGI [26]: > 10 µM
- TGI [27]: > 10 µM
- TGI [28]: > 10 µM
- TGI [29]: > 10 µM
- TGI [30]: > 10 µM
- TGI [31]: > 10 µM
- TGI [32]: > 10 µM
- TGI [33]: > 10 µM
- TGI [34]: > 10 µM
- TGI [35]: > 10 µM
- TGI [36]: > 10 µM
- TGI [37]: > 10 µM
- TGI [38]: > 10 µM
- TGI [39]: > 10 µM
- TGI [40]: > 10 µM
- TGI [41]: > 10 µM
- TGI [42]: > 10 µM
- TGI [43]: > 10 µM
- TGI [44]: > 10 µM
- TGI [45]: > 10 µM
- TGI [46]: > 10 µM
- TGI [47]: > 10 µM
- TGI [48]: > 10 µM
- TGI [49]: > 10 µM
- TGI [50]: > 10 µM
- TGI [51]: > 10 µM
- TGI [52]: > 10 µM
- TGI [53]: > 10 µM
- TGI [54]: > 10 µM
- TGI [55]: > 10 µM
- TGI [56]: > 10 µM
- TGI [57]: > 10 µM
- TGI [58]: > 10 µM
- TGI [59]: > 10 µM
